In PubChem BioAssay (NCI) one finds GI50 and TGI data, which are given here for seven molecules.

Among the test systems are SF-539 CNS; SK-MEL-5 melanoma; OVCAR-4 ovarian; SNB-19 CNS; NCI/ADR-RES ovarian; CAKI-1 renal; T-47D breast; UO-31 renal; KM12 colon; MOLT-4 leukemia.
Common to all, as to experiment: NCI tumour cell line growth inhibition, 48 h

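Method: 48-hour compound exposure of cells in 96-well plates, five concentrations, linear interpolation of endpoints. GI50: concentration for 50% inhibition of growth. The concentration for full growth arrest is given as TGI.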

Consider `CCCc1cc2c(=O)c(C(=O)OC)c[nH]c2cc1N(CC)CC`, for which the GI50 was 34 µM in the assay with SF-539 CNS; 31.9 µM in the assay on SK-MEL-5 melanoma; 22.4 µM in the assay with OVCAR-4 ovarian; 28.6 µM with SNB-19 CNS; 24.2 µM in the assay on NCI/ADR-RES ovarian; 11.7 µM in the assay on CAKI-1 renal. The GI50 with T-47D breast was 53 µM; with UO-31 renal, 28.5 µM; with KM12 colon, 45.5 µM; in the assay on MOLT-4 leukemia, more than 100 µM. Also, the TGI in the assay with SF-539 CNS is more than 100 µM; in the assay with SK-MEL-5 melanoma it was more than 100 µM; in the assay with OVCAR-4 ovarian, 74.5 µM; in the assay on SNB-19 CNS, 77.8 µM; in the assay with NCI/ADR-RES ovarian, 72.8 µM; in the assay with CAKI-1 renal, 29.1 µM. Besides, the TGI in the assay with T-47D breast, with UO-31 renal, in the assay on KM12 colon and in the assay on MOLT-4 leukemia was more than 100 µM each time.
Take `CC1(C)N=C(N)N=C(N)N1c1ccc(OCCCCOc2ccc(S(=O)(=O)F)cc2)c(Cl)c1`: the GI50 was 0.398 µM in the assay with SF-539 CNS; 0.346 µM with SK-MEL-5 melanoma; 6.4 µM with OVCAR-4 ovarian; 0.259 µM with SNB-19 CNS; 71.6 µM with NCI/ADR-RES ovarian; 3.7 µM in the assay on CAKI-1 renal. The GI50 was 1.14 µM in the assay on T-47D breast, 24.4 µM with UO-31 renal, 0.279 µM in the assay with KM12 colon and 0.135 µM in the assay with MOLT-4 leukemia. The TGI is 8.39 µM in the assay on SF-539 CNS; 8.5 µM with SK-MEL-5 melanoma; 27.7 µM in the assay with OVCAR-4 ovarian; 17.8 µM with SNB-19 CNS; more than 100 µM in the assay with NCI/ADR-RES ovarian; more than 47.2 µM in the assay on CAKI-1 renal. Moreover, the TGI was 13.2 µM in the assay on T-47D breast, more than 100 µM in the assay on UO-31 renal, 11.7 µM with KM12 colon and 16.3 µM in the assay on MOLT-4 leukemia.
On to `NC(N)=N/N=C\c1cccc(OCc2ccccc2)c1`, for which the GI50 in the assay on SF-539 CNS is 5.11 µM; in the assay on SK-MEL-5 melanoma it was 1.66 µM; in the assay with OVCAR-4 ovarian, 5.93 µM; in the assay with SNB-19 CNS, 10.3 µM; in the assay with NCI/ADR-RES ovarian, 3.85 µM; in the assay with CAKI-1 renal, 7.5 µM. In addition, the GI50 in the assay on T-47D breast was 1.55 µM; with UO-31 renal, 7.35 µM; with KM12 colon, 2.41 µM; in the assay with MOLT-4 leukemia, 11.1 µM. In addition, the TGI was 20 µM in the assay with SF-539 CNS; 3.12 µM with SK-MEL-5 melanoma; 27 µM with OVCAR-4 ovarian; 23.3 µM in the assay with SNB-19 CNS; 22.2 µM in the assay on NCI/ADR-RES ovarian; 22.2 µM in the assay with CAKI-1 renal. In addition, the TGI was determined as 3.99 µM in the assay with T-47D breast, 27.9 µM in the assay with UO-31 renal, 8.33 µM in the assay with KM12 colon and 27.8 µM in the assay on MOLT-4 leukemia.
Take `O=C(c1ccco1)c1nc2cc(Cl)ccc2[n+]([O-])c1C(F)(F)F`: the GI50 is more than 100 µM in the assay with SF-539 CNS; 20.3 µM in the assay on SK-MEL-5 melanoma; 29.2 µM with OVCAR-4 ovarian; 69 µM with SNB-19 CNS; 52.4 µM in the assay with NCI/ADR-RES ovarian; 28.3 µM in the assay with CAKI-1 renal. For the same molecule, the GI50 in the assay with T-47D breast was 27.5 µM; in the assay with UO-31 renal, more than 100 µM; with KM12 colon, 29.3 µM; in the assay on MOLT-4 leukemia it was 27.1 µM. Also, the TGI in the assay with SF-539 CNS was more than 100 µM; in the assay with SK-MEL-5 melanoma, 49.6 µM; in the assay with OVCAR-4 ovarian it was 75.7 µM; in the assay on SNB-19 CNS it was more than 100 µM; with NCI/ADR-RES ovarian, more than 100 µM; in the assay with CAKI-1 renal, 73.9 µM. Also, the TGI was more than 100 µM in the assay on T-47D breast, more than 100 µM in the assay with UO-31 renal, more than 100 µM in the assay on KM12 colon and 66.6 µM in the assay with MOLT-4 leukemia.
As to `O=C(Nc1cccc(Cl)c1)c1ccc(NC2=C(Cl)C(=O)N(Cc3ccccc3)C2=O)cc1`, the GI50 was 20.4 µM in the assay with SF-539 CNS; 7.81 µM with SK-MEL-5 melanoma; 19.4 µM in the assay with OVCAR-4 ovarian; 21.5 µM in the assay with SNB-19 CNS; 9.53 µM in the assay on NCI/ADR-RES ovarian; 14.7 µM in the assay on CAKI-1 renal. Also, the GI50 was 17.8 µM in the assay on T-47D breast, more than 26.3 µM with UO-31 renal, more than 38.3 µM in the assay on KM12 colon and 1.67 µM with MOLT-4 leukemia. Further, the TGI in the assay on SF-539 CNS is 36.3 µM; with SK-MEL-5 melanoma it was 19.4 µM; in the assay on OVCAR-4 ovarian it was more than 61.7 µM; in the assay with SNB-19 CNS, more than 59.2 µM; in the assay with NCI/ADR-RES ovarian, 24.9 µM; in the assay on CAKI-1 renal, 50.8 µM. Also, the TGI is more than 54.4 µM in the assay with T-47D breast, more than 100 µM with UO-31 renal, more than 56.2 µM in the assay with KM12 colon and 4.89 µM with MOLT-4 leukemia.
In the case of `N[C@@H]1CCCC[C@H]1N.O=C([O-])C(=O)[O-].[Pt+4]`, the GI50 with SF-539 CNS is 10 µM; in the assay on SK-MEL-5 melanoma it was 1.14 µM; in the assay with OVCAR-4 ovarian, 4.09 µM; in the assay on SNB-19 CNS it was 9.85 µM; in the assay on NCI/ADR-RES ovarian, 0.0318 µM; in the assay on CAKI-1 renal, 0.765 µM. In addition, the GI50 in the assay on T-47D breast was 2.21 µM; in the assay on UO-31 renal, 8.47 µM; with KM12 colon, 10.9 µM; in the assay with MOLT-4 leukemia, 0.137 µM. Further, the TGI in the assay on SF-539 CNS was more than 83.8 µM; with SK-MEL-5 melanoma, 13.3 µM; in the assay on OVCAR-4 ovarian, 83.8 µM; with SNB-19 CNS, more than 100 µM; in the assay with NCI/ADR-RES ovarian, 30.4 µM; in the assay with CAKI-1 renal, 39.3 µM. Moreover, the TGI was more than 100 µM in the assay with T-47D breast, 43.6 µM in the assay with UO-31 renal, more than 100 µM with KM12 colon and 15.6 µM in the assay with MOLT-4 leukemia.
Consider `C/C(=N/Nc1nc2ccccc2n1C)c1ccccn1`, for which the GI50 was 0.225 µM in the assay on SF-539 CNS; 0.162 µM in the assay on SK-MEL-5 melanoma; 0.0292 µM with OVCAR-4 ovarian; 0.327 µM with SNB-19 CNS; 0.0364 µM with NCI/ADR-RES ovarian; 0.104 µM in the assay on CAKI-1 renal. The GI50 in the assay with T-47D breast is less than 0.0144 µM; with UO-31 renal it was 0.0672 µM; in the assay with KM12 colon, 0.202 µM; with MOLT-4 leukemia, 0.0226 µM. The TGI is 1.94 µM in the assay with SF-539 CNS; 3.96 µM with SK-MEL-5 melanoma; 11.8 µM with OVCAR-4 ovarian; more than 100 µM in the assay with SNB-19 CNS; 0.555 µM with NCI/ADR-RES ovarian; 2.14 µM in the assay on CAKI-1 renal. The TGI in the assay on T-47D breast was 11.6 µM; with UO-31 renal, 1.59 µM; in the assay with KM12 colon, 20.7 µM; in the assay on MOLT-4 leukemia, more than 39.1 µM.
